The nature of the series: Residual rate of functional component during storage at 35° C. for 16 weeks (Example 1). Particulars: stored at 35° C. The class given is physicochemical. The procedure:
The residual rates of the functional components were compared while the cosmetic functional multi-capsule in Preparation Example 3 was stored at 35° C.

Consider `O=C1O[C@H]([C@@H](O)CO)C(O)=C1O` [compound 1, ascorbic acid], for which the “Ascorbic Acid Residual Rate” value reads like this: (storage period 2 weeks) 97.2%; (storage period 4 weeks) 95.3%; (storage period 6 weeks) 92.9%; (storage period 8 weeks) 90%; (storage period 10 weeks) 88.4%; (storage period 12 weeks) 81.2%. Further, the “Ascorbic Acid Residual Rate” value is, setting by setting: (storage period 14 weeks) 76.3%; (storage period 16 weeks) 70.5%.
On to anthocyanin [compound 2], for which the “Functional Component Residual Rate” value was determined as 97.2% (storage period 2 weeks); 94.5% (storage period 4 weeks); 91.8% (storage period 6 weeks); 88.8% (storage period 8 weeks); 86.5% (storage period 10 weeks); 78.5% (storage period 12 weeks). The “Functional Component Residual Rate” value runs as follows: (storage period 14 weeks) 74.5%; (storage period 16 weeks) 69.5%.
